# Test system: M. tuberculosis SRMV2.6 (IMPDH Tyr487Cys)
# Type: cell-based, Mycobacterium tuberculosis
Compound,MIC90 against SRMV2.6,fold more active against SRMV2.6 than wild-type M. tuberculosis
"N#Cc1cccc(CC(=O)N2CCN(S(=O)(=O)c3cccc4cnccc34)CC2)c1 [Compound 24, 3-{2-[4-(isoquinoline-5-sulfonyl)piperazin-1-yl]-2-oxoethyl}benzonitrile]",>250 µM,–
"Cc1cccc(Cl)c1NC(=O)N1CCN(S(=O)(=O)c2cccc3cnccc23)CC1 [Compound 40, N-(2-chloro-6-methylphenyl)-4-(isoquinolin-5-ylsulfonyl)piperazine-1-carboxamide]",>250 µM,–
"O=C(NCCNS(=O)(=O)c1cccc2cnccc12)C1CCC1 [Compound 10, N-{2-[(isoquinoline-5-sulfonyl)amino]ethyl}cyclobutanecarboxamide]",100 µM,–
"O=C(C1CCCCC1)N1CCC(NS(=O)(=O)c2cccc3cnccc23)CC1 [Compound 5, N-[1-(cyclohexanecarbonyl)piperidin-4-yl]isoquinoline-5-sulfonamide]",>100 µM,–
"COc1ccc(CC(=O)N2CCN(S(=O)(=O)c3cccc4cnccc34)CC2)c(OC)c1 [Compound 27, 1-[4-(isoquinoline-5-sulfonyl)piperazin-1-yl]-2-(2,4-dimethoxyphenyl)ethan-1-one]",>250 µM,–
"O=C(Nc1ccc(Cl)cc1)N1CCN(S(=O)(=O)c2cccc3cnccc23)CC1 [Compound 33, N-(4-chlorophenyl)-4-(isoquinolin-5-ylsulfonyl)piperazine-1-carboxamide]",>250 µM,–
"Cc1ccc(NC(=O)N2CCN(S(=O)(=O)c3cccc4cnccc34)CC2)c([N+](=O)[O-])c1 [Compound 39, 4-(isoquinolin-5-ylsulfonyl)-N-(4-methyl-2-nitrophenyl)piperazine-1-carboxamide]",25 µM,–
"COc1cc(C(=O)N2CCN(S(=O)(=O)c3cccc4cnccc34)CC2)cc(OC)c1OC [Compound 20, [4-(isoquinoline-5-sulfonyl)piperazin-1-yl](3,4,5-trimethoxyphenyl)methanone]",>125 µM,–
"O=C(Nc1ccc2c(c1)OCO2)N1CCC(NS(=O)(=O)c2cccc3cnccc23)CC1 [Compound 43, 4-[(isoquinoline-5-sulfonyl)amino]-N-(2H-1,3-benzodioxol-5-yl)piperidine-1-carboxamide]",>100 µM,–
"O=C(C1CCCCC1)N1CCN(S(=O)(=O)c2cccc3ccccc23)CC1 [Compound 7, Cyclohexyl[4-(naphthalene-1-sulfonyl)piperazin-1-yl]methanone]",>100 µM,–
"O=C(Nc1ccc(Cl)c([N+](=O)[O-])c1)N1CCN(S(=O)(=O)c2cccc3cnccc23)CC1 [Compound 35, N-(4-chloro-3-nitrophenyl)-4-(isoquinolin-5-ylsulfonyl)piperazine-1-carboxamide]",>100 µM,–
"O=C(Cc1cccc(O)c1)N1CCN(S(=O)(=O)c2cccc3cnccc23)CC1 [Compound 25, 2-(3-hydroxyphenyl)-1-[4-(isoquinoline-5-sulfonyl)piperazin-1-yl]ethan-1-one]",>250 µM,–
"O=C(Nc1cccc(C(F)(F)F)c1)N1CCN(S(=O)(=O)c2cccc3cnccc23)CC1 [Compound 32, 4-(isoquinolin-5-ylsulfonyl)-N-(3-(trifluoromethyl)phenyl)piperazine-1-carboxamide]",125 µM,–
"O=C(NCCNS(=O)(=O)c1cccc2cnccc12)c1cc([N+](=O)[O-])cc([N+](=O)[O-])c1 [Compound 21, N-{2-[(isoquinoline-5-sulfonyl)amino]ethyl}-3,5-dinitrobenzamide]",3.9 µM,4 fold
"O=S(=O)(c1cccc2cnccc12)N1CCN(C(=S)Nc2ccc3c(c2)OCO3)CC1 [Compound 42, N-(benzo[d][1,3]dioxol-5-yl)-4-(isoquinolin-5-ylsulfonyl)piperazine-1-carbothioamide]",>100 µM,–
"O=C(Nc1ccc(F)c(Cl)c1)N1CCN(S(=O)(=O)c2cccc3cnccc23)CC1 [Compound 36, N-(3-chloro-4-fluorophenyl)-4-(isoquinolin-5-ylsulfonyl)piperazine-1-carboxamide]",62.5 µM,–
"CC1(C(=O)N2CCN(S(=O)(=O)c3cccc4cnccc34)CC2)CCCCC1 [Compound 12, [4-(isoquinoline-5-sulfonyl)piperazin-1-yl](1-methylcyclohexyl)methanone]",>250 µM,–
"Cc1ccc(NC(=O)N2CCN(S(=O)(=O)c3cccc4cnccc34)CC2)cc1Cl [Compound 38, N-(3-chloro-4-methylphenyl)-4-(isoquinolin-5-ylsulfonyl)piperazine-1-carboxamide]",100 µM,–
"O=C(C1CCCCC1)N1CCN(S(=O)(=O)c2ccc3ccccc3c2)CC1 [Compound 8, Cyclohexyl[4-(naphthalene-2-sulfonyl)piperazin-1-yl]methanone]",>100 µM,–
"Cc1cc2c(S(=O)(=O)N3CCN(C(=O)C4CCCCC4)CC3)cccc2cn1 [Compound 6, Cyclohexyl[4-(3-methylisoquinoline-5-sulfonyl)piperazin-1-yl]methanone]",>100 µM,–

Compound,MIC90 against SRMV2.6,fold more active against SRMV2.6 than wild-type M. tuberculosis
"N#Cc1cccc(NC(=O)N2CCN(S(=O)(=O)c3cccc4cnccc34)CC2)c1 [Compound 31, N-(3-cyanophenyl)-4-(isoquinolin-5-ylsulfonyl)piperazine-1-carboxamide]",31.2 µM,–
"O=C(NCCNS(=O)(=O)c1cccc2cnccc12)C1CCCCC1 [Compound 2, N-{2-[(isoquinoline-5-sulfonyl)amino]ethyl}cyclohexanecarboxamide]",>250 µM,–
"N#Cc1cccc(C(=O)N2CCN(S(=O)(=O)c3cccc4cnccc34)CC2)c1 [Compound 16, 3-[4-(isoquinoline-5-sulfonyl)piperazine-1-carbonyl]benzonitrile]",50 µM,–
"O=C(NCCNS(=O)(=O)c1cccc2cnccc12)C1CC1 [Compound 9, N-{2-[(isoquinoline-5-sulfonyl)amino]ethyl}cyclopropanecarboxamide]",100 µM,–
"COc1cccc(CC(=O)N2CCN(S(=O)(=O)c3cccc4cnccc34)CC2)c1 [Compound 26, 1-[4-(isoquinoline-5-sulfonyl)piperazin-1-yl]-2-(3-methoxyphenyl)ethan-1-one]",>250 µM,–
"O=C(CC1CCC2(CC1)OCCO2)N1CCN(S(=O)(=O)c2cccc3cnccc23)CC1 [Compound 23, 2-(1,4-dioxaspiro[4.5]decan-8-yl)-1-[4-(isoquinoline-5-sulfonyl)piperazin-1-yl]ethan-1-one]",>250 µM,–
"Cc1cccc(CC(=O)N2CCN(S(=O)(=O)c3cccc4cnccc34)CC2)c1 [Compound 28, 1-(4-(isoquinolin-5-ylsulfonyl)piperazin-1-yl)-2-(m-tolyl)ethan-1-one]",>250 µM,–
"O=C(OCc1ccccc1)N1CCN(S(=O)(=O)c2cccc3cnccc23)CC1 [Compound 49, Benzyl 4-(isoquinolin-5-ylsulfonyl)piperazine-1-carboxylate]",100 µM,–
"O=C(c1cc([N+](=O)[O-])cc([N+](=O)[O-])c1)N1CCN(S(=O)(=O)c2cccc3cnccc23)CC1 [Compound 19, [4-(isoquinoline-5-sulfonyl)piperazin-1-yl](3,5-dinitrophenyl)methanone]",100 µM,–
"O=C(Nc1cccc(Cl)c1Cl)N1CCN(S(=O)(=O)c2cccc3cnccc23)CC1 [Compound 37, N-(2,3-dichlorophenyl)-4-(isoquinolin-5-ylsulfonyl)piperazine-1-carboxamide]",>250 µM,–
"O=C(Nc1ccc(Cl)c(C(F)(F)F)c1)N1CCN(S(=O)(=O)c2cccc3cnccc23)CC1 [Compound 34, N-(4-chloro-3-(trifluoromethyl)phenyl)-4-(isoquinolin-5-ylsulfonyl)piperazine-1-carboxamide]",50 µM,–
"O=C(c1ccccc1)N1CCN(S(=O)(=O)c2cccc3cnccc23)CC1 [Compound 15, [4-(isoquinoline-5-sulfonyl)piperazin-1-yl](phenyl)methanone]",>100 µM,–
"N#Cc1ccc(C(=O)N2CCN(S(=O)(=O)c3cccc4cnccc34)CC2)cc1 [Compound 17, 4-[4-(isoquinoline-5-sulfonyl)piperazine-1-carbonyl]benzonitrile]",100 µM,–
"CC1CN(S(=O)(=O)c2cccc3cnccc23)CCN1C(=O)C1CCCCC1 (stereo not shown) [Compound 3, Cyclohexyl[4-(isoquinoline-5-sulfonyl)-2-methylpiperazin-1-yl]methanone]",100 µM,–
"O=C(NC1CCN(S(=O)(=O)c2cccc3cnccc23)CC1)C1CCCCC1 [Compound 4, N-[1-(isoquinoline-5-sulfonyl)piperidin-4-yl]cyclohexanecarboxamide]",>100 µM,–
"O=C(Cc1ccc([N+](=O)[O-])cc1)N1CCN(S(=O)(=O)c2cccc3cnccc23)CC1 [Compound 30, 1-(4-(isoquinolin-5-ylsulfonyl)piperazin-1-yl)-2-(4-nitrophenyl)ethan-1-one]",>250 µM,–
"O=C(Cc1ccc(F)cc1)N1CCN(S(=O)(=O)c2cccc3cnccc23)CC1 [Compound 29, 2-(4-fluorophenyl)-1-(4-(isoquinolin-5-ylsulfonyl)piperazin-1-yl)ethan-1-one]",>100 µM,–
"O=C(Nc1ccc2c(c1)OCO2)N1CCN(S(=O)(=O)c2cccc3cnccc23)CC1 [Compound 41, N-(benzo[d][1,3]dioxol-5-yl)-4-(isoquinolin-5-ylsulfonyl)piperazine-1-carboxamide]",>100 µM,–
"CC(C)(C)C(=O)N1CCN(S(=O)(=O)c2cccc3cnccc23)CC1 [Compound 11, 1-[4-(isoquinoline-5-sulfonyl)piperazin-1-yl]-2,2-dimethylpropan-1-one]",100 µM,–

# Source: PMC6990405, “Synthesis and Structure–Activity relationship of 1-(5-isoquinolinesulfonyl)piperazine analogues as inhibitors of Mycobacterium tuberculosis IMPDH” (European Journal of Medicinal Chemistry, 2019)
